Measurements published in patent US20240209376A1, “Specific Oligonucleotide-Programmed Readthrough of Nonsense Codons” (UNIVERSITY OF MASSACHUSETTS, priority 2021, published 2024).
“Also recorded” adds a separate entry of the source.

What was measured:
[1] = system: CFTR premature stop codon (G542X; UGAC, UGAG) mRNA; experiment: 511-565 CFTR nanoluciferase construct readthrough (RRL assay); type: biochemical; settings: for readthrough promotion by fluoride-modified oligos: RRL assay
Description: (§1) FIG. 6 presents one embodiment of a cystic fibrosis gene/nanoluciferase expression construct (511-565 CFTR). Upper panel: A schematic of the construct showing the relative position of a premature stop codon (UGAG or UGAC) within a cystic fibrosis open reading frame (CFTR) and a luciferase gene with a natural terminal stop codon. Lower panel: A deoxyribonucleic acid sequence of the CFTR construct with a TGA premature stop codon and a deoxyribonucleic acid oligo hybridized to the CFTR construct at the +8 nucleotide position downstream of the premature stop codon.
In one embodiment, the present invention contemplates a modified cystic fibrosis transmembrane conductance regulator (CFTR) deoxyribonucleic acid (DNA) construct. In one embodiment, the modified CFTR DNA construct comprises a CFTR open reading frame comprising a premature TGA stop codon. In one embodiment, the TGA premature stop codon is a G542X mutation. In one embodiment, the modified CFTR DNA construct further comprises a nanoluciferase gene and a natural stop codon. In one embodiment, the modified CFTR mRNA construct molecule is hybridized to a single stranded DNA antisense oligo at the +8 nucleotide position downstream of a TGA premature stop codon. In one embodiment, the DNA antisense oligo is 5′-[…]-3′. See, FIG. 6.
(§2) A 511-565 CFTR DNA expression vector construct was designed with several different codon configurations: i) a single wild type sense codon (“GGAG”) and a subsequent wild-type stop codon; ii) a premature stop codon “TGAG” comprising a G542X mutation (e.g., a strong stop codon); and iii) a premature stop codon “TGAC” comprising a G542X mutation (a weak stop codon) rendering an artificial readthrough-prone context. […] See, FIG. 7.

[2] = experimental data; cited from earlier work
[3] = system: CAN1-luc expression construct premature stop codon; experiment: CAN1-luc expression construct readthrough (rabbit reticulocyte lysate); type: biochemical; settings: oligo at +8 position downstream of premature stop codon
Description: FIG. 4 illustrates one embodiment of a CAN1 arginine permease gene/luciferase expression construct (Can1-1uc). Upper panel: A schematic of the construct showing the relative position of a premature stop codon and a Can1 open reading frame and a luciferase gene with a natural terminal stop codon. Lower panel: A deoxyribonucleic acid sequence of the Can1-1uc construct with a TGA premature stop codon and a deoxyribonucleic acid oligo hybridized to the Can1-1uc construct at the +8 nucleotide position downstream of the premature stop codon.
FIG. 5 presents exemplary data showing readthrough of a CAN1-1uc expression construct premature stop codon with a DNA oligo hybridized at the +8 nucleotide position downstream of the premature stop codon.
The DNA antisense oligos contemplated herein were validated using a DNA expression construct comprising a premature stop codon and a luciferase gene. The basic methodology was used a CAN1 gene expression construct encoding an arginine permease amino acid transporter protein. The CAN1 expression construct positions a […] premature stop codon at the terminus of the CAN1 open reading frame subsequently followed by a luciferase open reading frame. See, FIG. 4. The DNA antisense oligo +8(70) having the nucleic acid sequence of 5′-[…]-3′ was then positioned at the +8 nucleic acid position downstream of the first nucleotide of the premature stop codon. […]

[4] = system: CFTR mRNA levels (NMD-mediator SMG1); experiment: mRNA analysis by qPCR in CFF-16HBEge cell lines; type: cell-based
Description: The example presents the results of mRNA analysis by quantitative polymerase chain reaction and (qPCR) and protein analysis by Western Blot.

[5] = system: CFTR wild type construct without premature stop codon (GGAG); experiment: 511-565 CFTR nanoluciferase construct expression, wild type; type: biochemical; settings: increasing G418 concentrations
Description: as §1
FIG. 8 presents exemplary data showing the effect of the aminoglycoside G418 on 511-565 CFTR construct expression.
as §2

[6] = cited from earlier work

With U^FCCAC^FTCAG^FTGTG^FATTC^FCAC^F as the compound, how does the “readthrough promotion by fluoride-modified oligos” value [1] read?
The value was “promote readthrough in an RRL assay with improved stability and/or efficiency”.

For gentamicin, which “relative toxicity among aminoglycosides” value [2] is on record?
The value was “more toxic than tobramycin and amikacin”.

Which “readthrough of premature stop codon in CAN1-luc construct” value [3] does the source give for “5′-GCGCCGGGCCTTTCTTTATGTTTTTGGCGT-3′ (DNA, backbone and methylation of C not given here) [+8(70), DNA antisense oligo at +8 position of CAN1-luc construct]” here?
The value was “increases readthrough of a premature stop codon”.

With “TCCACTCAGTGTGATTCCAC^F (2'-fluoro at 20, other sugars and backbone not given here; one 2'-fluoro at 3'-terminal nucleotide) [+8(47) oligo withone 2′-fluoride modification]” as the compound, how does the “readthrough promotion by fluoride-modified oligos” value [1] read?
The value was “promote readthrough in an RRL assay with improved stability and/or efficiency”.

For CCN(CC)S(=O)(=O)c1cc(Nc2nccc(-c3ccnc(-c4ccc(NC(=O)NC)cc4)c3)n2)ccc1Cl [SMG1i], which “CFTR WT mRNA” value [4] is on record?
The value was “smaller increase”.

What about the “mRNA levels of the PTC alleles” value [4] of the same compound?
The value was “restores mRNA levels of the PTC alleles”.

What does the source list for CN[C@@H]1[C@@H](O)[C@@H](O[C@H]2[C@H](O)[C@@H](O[C@H]3O[C@H]([C@H](C)O)[C@@H](O)[C@H](O)[C@H]3N)[C@H](N)C[C@@H]2N)OC[C@]1(C)O [G418]?
premature stop codon readthrough, G418 alone ([1]; UGAG and UGAC constructs, increasing G418 concentrations): promotes premature stop codon (UGAG and UGAC) readthrough in a concentration-dependent manner; also recorded: increasing expression of premature stop codon constructs; readthrough rate at 0.5 μM and 0.1 μM G418 versus 1 μM G418 ([1]; weak (UGAC) and strong (UGAG) premature codon, +8(66) combination experiment (FIG. 9)): significantly higher readthrough rate; wild type sense codon (GGAG) construct expression, G418 alone [5]: inhibits wild type sense codon (GGAG) readthrough in a concentration-dependent manner; also recorded: decreases the expression of wild type construct

Which “rise in NAG, once daily arm less than three times daily regimen” value ([6]; adults and children) does the source give for NC[C@H]1O[C@H](O[C@H]2[C@H](O)[C@@H](O[C@H]3O[C@H](CO)[C@@H](O)[C@H](N)[C@H]3O)[C@H](N)C[C@@H]2N)[C@H](N)C[C@@H]1O [tobramycin] here?
Its value is 33%.

What about the “elimination rate, once daily versus three times daily group” value ([6]; once daily group mostly dosed in the evening) of the same compound?
Its value is “lower elimination rate”.

And the “serum creatinine level during the course of treatment” value ([6]; paediatric group, single daily dose, compared with a rise with three divided doses)?
Its value is “decreased”.

What about the “efficacy, single daily versus multiple daily dosing regimen” value ([6]; patients with CF) of the same compound?
The value was “equal efficacy”.
